Test results taken from PubChem BioAssay AID248 (DTP/NCI, 2004).
Inconclusive results and toxic doses are left out.

Tested on: L1210 leukemia ip in BDF1 mice, survival T/C
Assay: NCI In Vivo Anticancer Drug Screen. Data for tumor model L1210 Leukemia (intraperitoneal) in B6D2F1 (BDF1) mice
Conditions: endpoint: mean survival time, higher = longer survival
In short: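 Transplantable tumor model; survival measured in treated vs vehicle control mice. Value = treated/control.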

[1] = dose: 100.0 mg/kg/injection, schedule: Q01DX001 (ip), vehicle: saline
[2] = dose: 200.0 mg/kg/injection, schedule: Q01DX001 (ip), vehicle: saline
[3] = dose: 400.0 mg/kg/injection, schedule: Q01DX001 (ip), vehicle: saline
[4] = dose: 100.0 mg/kg/injection, schedule: Q04DX003 (ip), vehicle: saline with Tween-80
[5] = dose: 200.0 mg/kg/injection, schedule: Q04DX003 (ip), vehicle: saline with Tween-80
[6] = dose: 25.0 mg/kg/injection, schedule: Q01DX009 (ip), vehicle: Klucel (hydroxypropylcellulose) (HPC)
[7] = dose: 50.0 mg/kg/injection, schedule: Q01DX009 (ip), vehicle: Klucel (hydroxypropylcellulose) (HPC)
[8] = dose: 100.0 mg/kg/injection, schedule: Q01DX009 (ip), vehicle: Klucel (hydroxypropylcellulose) (HPC)
[9] = dose: 100.0 mg/kg/injection, schedule: Q04DX003 (ip), vehicle: Klucel (hydroxypropylcellulose) (HPC)
[10] = dose: 200.0 mg/kg/injection, schedule: Q04DX003 (ip), vehicle: Klucel (hydroxypropylcellulose) (HPC)
[11] = dose: 100.0 mg/kg/injection, schedule: Q01DX009 (ip), vehicle: saline
[12] = dose: 200.0 mg/kg/injection, schedule: Q01DX009 (ip), vehicle: saline
[13] = dose: 100.0 mg/kg/injection, schedule: Q04DX002 (ip), vehicle: Klucel (hydroxypropylcellulose) (HPC)
[14] = dose: 200.0 mg/kg/injection, schedule: Q04DX002 (ip), vehicle: Klucel (hydroxypropylcellulose) (HPC)
[15] = dose: 400.0 mg/kg/injection, schedule: Q04DX003 (ip), vehicle: saline with Tween-80
[16] = dose: 400.0 mg/kg/injection, schedule: Q04DX003 (ip), vehicle: Klucel (hydroxypropylcellulose) (HPC)

OCC(CO)=C1c2ccccc2-c2ccccc21
T/C (dose: 100.0 mg/kg/injection, schedule: Q## X003 (ip), vehicle: acetone): 102 % of control | T/C (dose: 200.0 mg/kg/injection, schedule: Q## X003 (ip), vehicle: acetone): 101 % of control | T/C (dose: 400.0 mg/kg/injection, schedule: Q## X003 (ip), vehicle: acetone): 104 % of control

Cc1cn(C2OC(CO)C(O)C2O)c(=O)[nH]c1=O (stereo not drawn)
T/C (dose: 3.75 mg/kg/injection, schedule: Q01DX Z (ip), vehicle: saline): 86 % of control | T/C (dose: 6.25 mg/kg/injection, schedule: Q03HX024 (ip), vehicle: saline): 102 % of control | T/C (dose: 7.5 mg/kg/injection, schedule: Q01DX Z (ip), vehicle: saline): 88 % of control | T/C (dose: 12.5 mg/kg/injection, schedule: Q03HX024 (ip), vehicle: saline): 94 % of control | T/C (dose: 25.0 mg/kg/injection, schedule: Q03HX024 (ip), vehicle: saline): 107 % of control | T/C (dose: 30.0 mg/kg/injection, schedule: Q01DX Z (ip), vehicle: saline): 86 % of control | T/C (dose: 50.0 mg/kg/injection, schedule: Q01DX001 (ip), vehicle: carboxymethylcellulose (CMC)): 116 % of control | T/C (dose: 50.0 mg/kg/injection, schedule: Q03HX024 (ip), vehicle: saline): 102 % of control | T/C (dose: 60.0 mg/kg/injection, schedule: Q01DX Z (ip), vehicle: saline): 92 % of control | T/C (dose: 100.0 mg/kg/injection, schedule: Q01DX001 (ip), vehicle: carboxymethylcellulose (CMC)): 97 % of control | T/C [1]: 87 % of control | T/C (dose: 200.0 mg/kg/injection, schedule: Q01DX001 (ip), vehicle: carboxymethylcellulose (CMC)): 106 % of control | T/C [2]: 92 % of control | T/C (dose: 400.0 mg/kg/injection, schedule: Q01DX001 (ip), vehicle: carboxymethylcellulose (CMC)): 95 % of control | T/C [3]: 90 % of control

CC1(C)C2CCC(CC(=O)O)C1C2 (stereo not drawn)
T/C [4]: 101 % of control | T/C [5]: 101 % of control

C/C(=N/NC(N)=S)c1ccc(Cl)cc1
T/C (dose: 5.0 mg/kg/injection, schedule: Q01DX001 (ip), vehicle: other): 105 % of control | T/C (dose: 10.0 mg/kg/injection, schedule: Q01DX001 (ip), vehicle: other): 111 % of control

CC1(C)OC2C(CO)OC(n3cnc4c(N)ncnc43)C2O1 (stereo not drawn)
T/C [6]: 103 % of control | T/C [7]: 98 % of control | T/C [8]: 100 % of control | T/C [9]: 103 % of control | T/C [10]: 103 % of control

Cn1cnc([N+](=O)[O-])c1Sc1nc(N)nc2c1ncn2C1OC(CO)C(O)C1O (stereo not drawn)
T/C (dose: 0.94 mg/kg/injection, schedule: Q01DX Z (ip), vehicle: methylcellulose (MC)): 121 % of control | T/C (dose: 1.88 mg/kg/injection, schedule: Q01DX Z (ip), vehicle: methylcellulose (MC)): 121 % of control | T/C (dose: 3.75 mg/kg/injection, schedule: Q01DX Z (ip), vehicle: methylcellulose (MC)): 116 % of control | T/C (dose: 7.5 mg/kg/injection, schedule: Q01DX Z (ip), vehicle: methylcellulose (MC)): 116 % of control | T/C (dose: 15.0 mg/kg/injection, schedule: Q01DX Z (ip), vehicle: methylcellulose (MC)): 103 % of control

CC1CN=C(c2ccc(O)cc2)S1 (stereo not drawn)
T/C (dose: 50.0 mg/kg/injection, schedule: Q01DX009 (ip), vehicle: saline): 102 % of control | T/C (dose: 100.0 mg/kg/injection, schedule: Q01DX005 (ip), vehicle: saline): 104 % of control | T/C [11]: 106 % of control | T/C (dose: 100.0 mg/kg/injection, schedule: Q04DX002 (ip), vehicle: saline): 96 % of control | T/C (dose: 200.0 mg/kg/injection, schedule: Q01DX005 (ip), vehicle: saline): 104 % of control | T/C [12]: 102 % of control | T/C (dose: 200.0 mg/kg/injection, schedule: Q04DX002 (ip), vehicle: saline): 104 % of control | T/C (dose: 400.0 mg/kg/injection, schedule: Q04DX002 (ip), vehicle: saline): 107 % of control

O=[N+]([O-])c1ccc2c(c1)OCO2
T/C [13]: 103 % of control | T/C [14]: 88 % of control | T/C (dose: 400.0 mg/kg/injection, schedule: Q04DX002 (ip), vehicle: Klucel (hydroxypropylcellulose) (HPC)): 94 % of control

COc1cc(C(=O)O/N=C(\N)CCl)cc(OC)c1OC
T/C (dose: 6.25 mg/kg/injection, schedule: Q04DX002 (ip), vehicle: Klucel (hydroxypropylcellulose) (HPC)): 92 % of control | T/C (dose: 12.5 mg/kg/injection, schedule: Q04DX002 (ip), vehicle: Klucel (hydroxypropylcellulose) (HPC)): 88 % of control | T/C (dose: 25.0 mg/kg/injection, schedule: Q04DX002 (ip), vehicle: Klucel (hydroxypropylcellulose) (HPC)): 88 % of control

COc1ccc(OC)c2c(C)cc(=O)[nH]c12
T/C [1]: 97 % of control | T/C [2]: 98 % of control

OCC(O)CCBr (stereo not drawn)
T/C [1]: 100 % of control | T/C [11]: 107 % of control | T/C [2]: 105 % of control | T/C [12]: 115 % of control | T/C [3]: 108 % of control

CCC(CC)NCC(C)(C)O
T/C (dose: 75.0 mg/kg/injection, schedule: Q01DX001 (ip), vehicle: acid diluted with saline): 115 % of control | T/C (dose: 150.0 mg/kg/injection, schedule: Q01DX001 (ip), vehicle: acid diluted with saline): 110 % of control

CC(=O)Nc1cc([N+](=O)[O-])c(C)c([N+](=O)[O-])c1
T/C [4]: 104 % of control | T/C [5]: 97 % of control | T/C [15]: 97 % of control

Cc1ccc(C(=O)CCCC(=O)c2ccc(C)cc2)cc1
T/C (dose: 50.0 mg/kg/injection, schedule: Q01DX001 (ip), vehicle: other): 103 % of control | T/C (dose: 100.0 mg/kg/injection, schedule: Q01DX001 (ip), vehicle: other): 91 % of control | T/C (dose: 200.0 mg/kg/injection, schedule: Q01DX001 (ip), vehicle: other): 97 % of control | T/C (dose: 400.0 mg/kg/injection, schedule: Q01DX001 (ip), vehicle: other): 95 % of control

c1ccc(OB(Oc2ccccc2)Oc2ccccc2)cc1
T/C [1]: 95 % of control | T/C [2]: 95 % of control | T/C [3]: 106 % of control

CC(=O)C1C=NCC(C)(C)N=CC(C(C)=O)C(C)=NCCCN=C1C.[Ni] (stereo not drawn)
T/C (dose: 12.5 mg/kg/injection, schedule: Q01DX009 (ip), vehicle: Klucel (hydroxypropylcellulose) (HPC)): 95 % of control | T/C (dose: 12.5 mg/kg/injection, schedule: Q04DX003 (ip), vehicle: Klucel (hydroxypropylcellulose) (HPC)): 96 % of control | T/C [6]: 100 % of control | T/C (dose: 25.0 mg/kg/injection, schedule: Q04DX003 (ip), vehicle: Klucel (hydroxypropylcellulose) (HPC)): 91 % of control | T/C [7]: 97 % of control | T/C (dose: 50.0 mg/kg/injection, schedule: Q04DX003 (ip), vehicle: Klucel (hydroxypropylcellulose) (HPC)): 102 % of control

NNC(=O)CCCO
T/C [4]: 103 % of control | T/C [5]: 98 % of control | T/C [15]: 101 % of control

NC(Cc1c[nH]c2cc(N(CCCl)CCCl)ccc12)C(=O)O (stereo not drawn)
T/C (dose: 0.25 mg/kg/injection, schedule: Q01DX Z (ip), vehicle: other): 171 % of control | T/C (dose: 0.5 mg/kg/injection, schedule: Q01DX Z (ip), vehicle: other): 188 % of control | T/C (dose: 125.0 micrograms/kg/injection, schedule: Q01DX009 (ip), vehicle: carboxymethylcellulose (CMC)): 118 % of control | T/C (dose: 500.0 micrograms/kg/injection, schedule: Q01DX009 (ip), vehicle: carboxymethylcellulose (CMC)): 167 % of control | T/C (dose: 1000.0 micrograms/kg/injection, schedule: Q01DX009 (ip), vehicle: carboxymethylcellulose (CMC)): 229 % of control

O=C1OCCN1S(=O)(=O)c1ccc(Cl)cc1
T/C [9]: 104 % of control | T/C [10]: 95 % of control | T/C [16]: 96 % of control

CCCCCCCCCCCCCCCCCCOc1ccccn1
T/C [8]: 97 % of control | T/C [9]: 98 % of control | T/C (dose: 200.0 mg/kg/injection, schedule: Q01DX009 (ip), vehicle: Klucel (hydroxypropylcellulose) (HPC)): 96 % of control | T/C [10]: 93 % of control | T/C (dose: 400.0 mg/kg/injection, schedule: Q01DX009 (ip), vehicle: Klucel (hydroxypropylcellulose) (HPC)): 91 % of control | T/C [16]: 92 % of control

CC1(C)C2CCC1(C)C(OC(=O)c1ccc([N+](=O)[O-])cc1)C2OC(=O)c1ccc([N+](=O)[O-])cc1 (stereo not drawn)
T/C (dose: 75.0 mg/kg/injection, schedule: Q01DX009 (ip), vehicle: saline): 108 % of control | T/C (dose: 150.0 mg/kg/injection, schedule: Q01DX009 (ip), vehicle: saline): 103 % of control | T/C (dose: 300.0 mg/kg/injection, schedule: Q01DX009 (ip), vehicle: saline): 97 % of control

Cc1no[n+]([O-])c1C(=O)O
T/C [13]: 95 % of control | T/C [14]: 93 % of control
